Data taken from article PMC10424187, “Structure-Guided Design and Synthesis of a Pyridazinone Series of Trypanosoma cruzi Proteasome Inhibitors” (Journal of Medicinal Chemistry, 2023).
Where “and” joins values, the source holds several entries; their conditions need not be identical. Equal values may be shown once.

Assays:
T. cruzi proteasome = T. cruzi proteasome (Trypanosoma cruzi, UniProt V5BU39+V5C017); assay: T. cruzi proteasome assay (chymotrypsin-like activity, Suc-LLVY-Rho-110-DPro); conditions: for Tc Prot Hill Slope / Tc Prot Max Response (%): individual replicate; for T. cruzi Prot pIC50: mean of at least three independent replicates; for Emax: read-out: Tc Prot Max Response (%), individual replicate
Sequence of T. cruzi proteasome (V5BU39 entry or part of it): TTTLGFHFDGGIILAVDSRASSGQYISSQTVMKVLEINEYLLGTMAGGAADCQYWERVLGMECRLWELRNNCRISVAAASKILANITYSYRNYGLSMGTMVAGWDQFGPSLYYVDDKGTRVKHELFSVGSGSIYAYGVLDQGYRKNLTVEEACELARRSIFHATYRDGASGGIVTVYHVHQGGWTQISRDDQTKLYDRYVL
Sequence of T. cruzi proteasome (V5C017 entry or part of it): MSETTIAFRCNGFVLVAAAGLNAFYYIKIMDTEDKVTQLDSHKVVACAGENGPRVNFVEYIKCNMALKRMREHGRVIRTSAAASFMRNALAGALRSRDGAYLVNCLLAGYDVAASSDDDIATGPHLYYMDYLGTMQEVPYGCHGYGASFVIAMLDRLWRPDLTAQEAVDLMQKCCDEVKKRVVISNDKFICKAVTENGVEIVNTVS
Experimental: T. cruzi and human proteasome assays
(§1) The T. cruzi proteasome was partially purified as described in the above reference and Human
(§2) 20S proteasome was purchased from Boston Biochem (now R&D Systems, catalogue number
(§3) a Tecan Fluent to titrate over 11 points in Labcyte Echo-compatible Greiner Bio-One 384 well
(§4) polypropylene microplates. Subsequently, 100 nl of test compound titrations were transferred
(§5) to black Greiner Bio-One low volume 384 well microplates using a Labcyte Echo acoustic
(§6) 50 mM HEPES pH 7.5, 150 mM sodium chloride, 5% Glycerol, 1 mM dithiothreitol, 1 mM
(§7) CHAPS in deionised, filtered water (all chemicals purchased from Sigma Aldrich). Human 20S
(§8) These enzyme solutions were prepared immediately prior to assay initiation and stored at 4 °C
(§9) To monitor the Chymotrypsin-like activity of the T. cruzi and Human 20S proteasome proteins
(§10) a self-quenched, Rhodamine 110-labelled peptide with the sequence Suc-LLVY-Rho-110-
(§11) DPro was used (prepared by Cambridge Research Biochemicals. Suc is succinyl, while DPro
(§12) refers to ᴅ-proline). The peptide was initially prepared from solid as a 10 mM solution in 100%
(§13) DMSO and stored at -20 °C. Prior to use in the assay, an aliquot was thawed at room
(§14) to twofold Km. For use with the Human 20S proteasome, the Suc-LLVY-Rho-110-DPro
(§15) peptide was diluted in assay buffer to a concentration equivalent to twofold Km, which for this
(§16) enzyme was 2 μM. The peptide solutions were protected from light and stored at 4 °C before
(§17) A Multidrop Micro (Thermo Fisher), using a low volume dispense cassette, was used to add
(§18) the assay solutions to the test compounds in the low volume 384-well microplates. Prior to
(§19) addition of proteasome solution, 5 μl of assay buffer was added to one column (containing 100
(§20) nl, 100% DMSO) to act as no enzyme control to mimic full inhibition. Subsequently, 5 μl of
(§21) proteasome solution (either T. cruzi or Human 20S) was added to all wells on the test
(§22) microplate apart from the column containing 5 μl assay buffer. The microplate was then spun
(§23) using a suitable bench top centrifuge for 1 minute at 1000 rpm, before incubation at room
(§24) Following the initial incubation, 5 μl of substrate solution was then added to all wells on the
(§25) test microplate using a Multidrop Micro equipped with a discrete low volume dispense cassette.
(§26) The test microplates were then spun for 10 seconds at 1000 rpm before being rapidly moved to
(§27) a multi-mode microplate reader, capable of monitoring fluorescence intensity. The microplate
(§28) reader used for these studies was a Tecan M1000 Pro, equipped with quad monochromators.
(§29) 530 ± 5 nm. A series of fluorescence intensity measurements were taken every 30 seconds for
(§30) Subsequently, the fluorescence intensity measurements (relative fluorescence units, RFU) were
(§31) fit to a simple linear regression model (y = A + Bx, where y refers to the fluorescence intensity
(§32) and x refers to the time in seconds) to determine the initial rate of reaction. The initial rate for
(§33) every compound concentration tested was then fit a 4-parameter logistic model: y = (A + (B -
(§34) A)) / (1 + (x / C)D), where y refers to the assay response, x refers to the inhibitor concentration,
(§35) A and B are the range values (minimum and maximum, respectively), C is the IC50 value and
(§36) D is the slope. Potency values were then reported as pIC50, which is the negative log of the
(§37) IC50 (on a molar scale). Data analysis was automated and carried out using the ActivityBase

Human 20S proteasome = Human 20S proteasome (Homo sapiens, UniProt P28074+P49721); assay: human proteasome assay (chymotrypsin-like activity, Suc-LLVY-Rho-110-DPro); conditions: for Emax: read-out: Hs Prot Max Response (%), individual replicate
Experimental: T. cruzi and human proteasome assays
as §1, §2, §3, §4, §5, §6, §7, §8, §9, §10, §11, §12, §13, §14, §15, §16, §17, §18, §19, §20, §21, §22, §23, §24, §25, §26, §27, §28, §29, §30, §31, §32, §33, §34, §35, §36, §37

[1] = tested on: intracellular T. cruzi X10/7 A1 amastigotes
[2] = Mouse microsomal intrinsic clearance; type: in vitro ADME; conditions: mouse liver microsomes, scaling 52.5 mg microsomal protein/g liver
Experimental: Mouse microsomal intrinsic clearance.
This assay was conducted as previously described:
J.; Reid, I. H.; Hill, A. P.;
were prepared by adding a volume (5 µL) of the 10 mM solution to a volume (195 µL) of […]

ChromLogD = type: physicochemical; conditions: pH 7.4; read-out: Chrom LogDpH7.4
Experimental: Chrom LogD was measured as previously described:
solubility and hydrophobicity. Drug Discov. Today 2010, 15, 648−655. […]

[3] = T. cruzi Prot pIC50, mean of at least three independent replicates
[4] = mean of at least three independent replicates
[5] = Tc Prot pIC50, individual replicate

Structure (SMILES) | IC50 (T. cruzi proteasome; [3]) | Tc Prot Hill Slope (T. cruzi proteasome) | Tc Prot Max Response (%) (T. cruzi proteasome) | Hs Prot Max Response (%) (Human 20S proteasome; individual replicate) | Hs Prot pIC50 (Human 20S proteasome; individual replicate) | Hs Prot pIC50 (Human 20S proteasome; [4]) | EC50 [1] | Emax [1] | IC50 (T. cruzi proteasome; [5]) | T. cruzi Prot pIC50 (T. cruzi proteasome) | Emax (T. cruzi proteasome) | Mouse CLi [2] | chromatographic logD (ChromLogD) | EC50 (host VERO cells) | Emax (host VERO cells) | Emax (Human 20S proteasome)
O=C(NC1CC1)c1cccc(NC(=O)c2ccc(=O)n(Cc3ccccc3)n2)c1 [Compound 5, 1-Benzyl-N-(3-(cyclopropylcarbamoyl)phenyl)-6-oxo-1,6-dihydropyridazine-3-carboxamide] | 631 nM | 0.5 and 0.8 and 0.9 and 1.1 and 0.95 and 1.0 and 0.74 and 0.7 and 0.6 | 105% and 88% and 77% and 79% and 81% and 80% and 73% and 74% and 75% and 78% | 18% and 4% and 2% and 9% and 19% and 28% and 3% and 8% and 12% and 13% and 11% and 20% and 10% and 15% | < 4 | <4 | 7940 nM | 73% and 75% and 70% and 81% and 55% and 80% and 83% | – | – | – | – | – | – | – | –
CN(C(=O)c1ccc(=O)n(Cc2ccccc2)n1)c1cccc(C(=O)NC2CC2)c1 [Compound 6, 1-Benzyl-N-(3-(cyclopropylcarbamoyl)phenyl)-N-methyl-6-oxo-1,6-dihydropyridazine-3-carboxamide] | > 100000 nM | – | – | 28% and 21% and 6% | < 4 | <4 | > 50100 nM | – | > 100000 nM | complete loss of activity | 30% | 11 mL/min/g | 3.3 | – | – | –
CN(C(=O)c1cccc(NC(=O)c2ccc(=O)n(Cc3ccccc3)n2)c1)C1CC1 [Compound 7, 1-Benzyl-N-(3-(cyclopropyl(methyl)carbamoyl)phenyl)-6-oxo-1,6-dihydropyridazine-3-carboxamide] | 20000 nM | 0.8 and 0.75 | 75% and 49% and 40% and 61% | 20% and 27% and 10% | < 4 | <4 | > 50100 nM | 42% | 25100 nM and > 100000 nM and 15800 nM | – | – | 19 mL/min/g | 4.5 | > 50100 nM | 11% | –
COc1cccc(Cn2nc(C(=O)Nc3ccc(F)c(C(=O)NC4CC4)c3)ccc2=O)c1 [Compound 13, N-(3-(Cyclopropylcarbamoyl)-4-fluorophenyl)-1-(3-methoxybenzyl)-6-oxo-1,6-dihydropyridazine-3-carboxamide] | > 100000 nM | – | 2% and 10% | 7% | < 4 | <4 | > 50100 nM | 23% | > 100000 nM | complete loss of potency | – | 25 mL/min/g | 5.5 | – | – | 9%
COc1ccc(Cn2nc(C(=O)Nc3ccc(F)c(C(=O)NC4CC4)c3)ccc2=O)cc1F [Compound 15, N-[3-(Cyclopropylcarbamoyl)-4-fluorophenyl]-1-[(3-fluoro-4-methoxy-phenyl)methyl]-6-oxo-pyridazine-3-carboxamide] | – | – | – | 17% and 16% and 19% and 12% and 6% and 8% and 5% and 1% | < 4 | <4 | 158 nM | 95% and 98% and 93% and 90% and 85% and 94% and 89% and 88% | – | – | – | – | – | – | – | –
COc1ccc(Cn2nc(C(=O)Nc3ccc(F)c(C(=O)N[C@H]4C[C@H](OC)C4)c3)ccc2=O)cc1 [Compound 19, N-(4-Fluoro-3-((trans-3-methoxycyclobutyl)carbamoyl)phenyl)-1-(4-methoxybenzyl)-6-oxo-1,6-dihydropyridazine-3-carboxamide] | – | 1.0 and 1.1 and 0.9 | 84% and 95% | 14% | < 4 | <4 | – | 86% and 80% and 94% and 101% and 90% and 88% | 31.6 nM | – | 78% | – | – | – | – | 16%
COc1ccc(Cn2nc(C(=O)Nc3ccc(F)c(C(=O)N[C@H]4C[C@H](OC)C4)c3)ccc2=O)cc1F [Compound 20, N-(4-Fluoro-3-((trans-3-methoxycyclobutyl)carbamoyl)phenyl)-1-(3-fluoro-4-methoxybenzyl)-6-oxo-1,6-dihydropyridazine-3-carboxamide] | 6.31 nM | 0.9 | 63% and 86% | 23% | < 4 | <4 | – | 100% and 94% and 92% and 97% | 6.31 nM | – | – | – | – | – | – | 20%
COc1ccc(Cn2nc(C(=O)Nc3ccc(F)c(C(=O)NCCN4CCOCC4)c3)ccc2=O)cc1F [Compound 22, 1-[(3-Fluoro-4-methoxy-phenyl)methyl]-N-[4-fluoro-3-(2-morpholinoethylcarbamoyl)phenyl]-6-oxo-pyridazine-3-carboxamide] | – | 1.0 and 0.9 | 80% and 81% | 7% and 14% and 2% | – | – | – | 99% and 93% and 95% and 97% and 98% and 91% and 96% | 15.8 nM | – | 72% | – | – | – | – | –
COc1ccc(Cn2nc(C(=O)Nc3ccc(F)c(C(=O)N[C@H]4C[C@H](N5CCOCC5)C4)c3)ccc2=O)cc1F [Compound 23, N-(4-Fluoro-3-((trans-3-morpholinocyclobutyl)carbamoyl)phenyl)-1-(3-fluoro-4-methoxybenzyl)-6-oxo-1,6-dihydropyridazine-3-carboxamide] | 7.94 nM | 1.2 and 1.1 | 86% | 15% and 17% | < 4 | <4 | – | 96% and 93% and 98% and 95% and 97% and 94% | 5.01 nM | – | 88% | – | – | – | – | 13%
COc1ccc(Cn2nc(C(=O)Nc3ccc(F)c(C(=O)N[C@H]4C[C@@H](N5CCOCC5)C4)c3)ccc2=O)cc1F [Compound 24, N-(4-Fluoro-3-((cis-3-morpholinocyclobutyl)carbamoyl)phenyl)-1-(3-fluoro-4-methoxybenzyl)-6-oxo-1,6-dihydropyridazine-3-carboxamide] | 7.94 nM | 1.1 | 85% and 87% | 6.38% and 29% and 23% | < 4 | <4 | – | 93% and 95% and 98% and 96% | 6.31 nM | – | 82% | – | – | – | 16% | –
COc1ccc(Cn2nc(C(=O)Nc3ccc(F)c(C(=O)N[C@H](C)CO)c3)ccc2=O)cc1F [Compound 25, (R)-N-(4-Fluoro-3-((1-hydroxypropan-2-yl)carbamoyl)phenyl)-1-(3-fluoro-4-methoxybenzyl)-6-oxo-1,6-dihydropyridazine-3-carboxamide] | 50.1 nM | 1.1 and 0.95 and 0.9 and 1.0 | 80% and 82% and 79% | 0.497% and 2.25% and 10% and 4.33% and 5% and 2.24% and 9% | < 4 | <4 | 398 nM | 92% and 96% and 91% and 89% and 95% and 99% | 39.8 nM and 31.6 nM and 63.1 nM | – | 81% | – | – | – | – | –
CNC(=O)c1cc(NC(=O)c2ccc(=O)n(Cc3ccc(OC)c(F)c3)n2)ccc1F [Compound 27, 1-[(3-Fluoro-4-methoxy-phenyl)methyl]-N-[4-fluoro-3-(methylcarbamoyl)phenyl]-6-oxo-pyridazine-3-carboxamide] | 6.31 nM | 1.0 and 0.9 | 60% and 80% and 81% | 3.52% | < 4 | <4 | 316 nM | 99% and 88% and 89% and 96% and 90% and 97% and 94% | 3.98 nM and 10 nM and 7.94 nM | – | – | – | – | – | – | 6%
